The structures appear in SMILES notation. Where a name gives a salt, the structure may show the parent alone.

This test has as its system ICR mice. The test is described as follows: DNP-HSA-induced auricular edema in mice (passive cutaneous anaphylaxis). In kind it is in vivo, mouse. To be noted: FIG. 8 experiment. On the procedure: Inhibiting Action of Hop Water Extract on DNP-HSA-Induced Auricular Edema in Mice: • Six-week-old ICR mice (male or female; Charles River Laboratories, Japan Inc.) were separated into 4-5 per cage and raised at room temperature (24±2° C.) and 55±15% humidity, with a 12 hour light/dark cycle (light: 8:00-20:00). After preparatory rearing for at least one week, they were provided for the test. A hop pellet water extract, hop leaf water extract or ketotifen fumarate aqueous solution (10 mL/kg) was forcedly administered orally to each test group, while 10 mL/kg of distilled water was forcedly administered orally to the control group. The hop pellet water extract was prepared by adding hop pellets (Czech Saaz) to distilled water to 10% (w/w) and extracting overnight at 4° C., and then centrifuging at 3000 rpm for 10 minutes and filtering. The hop leaf water extract was prepared by adding dry hop leaves (Kokusan hop young leaves) to distilled water to 10% (w/w) and extracting overnight at 4° C., and then centrifuging at 3000 rpm for 10 minutes and filtering. The ketotifen fumarate aqueous solution was prepared by dissolving in distilled water to a concentration of 0.5 mg/mL.
At 1 hour after oral administration, 20 μL of 10 μg/mL mouse anti-DNP-IgE antibody (Sigma) was intradermally injected into one auricle of each mouse, while 20 μL of physiological saline (PS) was intradermally injected into the other auricle. […] The auricular thickness before antigen administration and 30 minutes after antigen administration was measured three times each using a thickness gauge, and the auricular edema ratio and auricular thickness increase were determined. […] The auricular edema ratio (%) was calculated by the formula: (Mean auricular thickness 30 minutes after antigen administration−mean auricular thickness before antigen administration)×100/mean auricular thickness […], and the auricular thickness increase (mm) was calculated by the formula: Mean auricular thickness 30 minutes after antigen administration−mean auricular thickness before antigen administration.

Setting [1] is: oral 10 mL/kg, intradermal injection of IgE antibody, 30 minutes after antigen.

Turning to `CN1CCC(=C2c3ccccc3CC(=O)c3sccc32)CC1` [ketotifen fumarate], the “auricular edema ratio compared to the distilled water-administered group (t-test)” value (ketotifen p<0.05, hop extracts p value of 0.08, critical region 5%) is given as “significantly inhibited”. Also, under setting [1], the auricular edema ratio was found to be 12.7±5.4% and the auricular thickness increase was 0.045±0.020 mm.

(Values after US7910141B2, “Antiallergic composition” (Sapporo Breweries Limited, priority 2005, dated 2011).)
